settings: 24.0 °C

| Compound | log10 OH rate constant (cm³/molecule/s) |
| --- | --- |
| CSSC | -9.64 |

same assay, conditions: 25.0 °C

| log10 OH rate constant (cm³/molecule/s) | Compound |
| --- | --- |
| -10.5 | CCCCOCCCC |
| -11.7 | CCC1CO1 (configuration not stated) |
| -11.2 | COCCBr |
| -11.1 | CCCCCOC(C)=O |
| -11 | CCCCCCC(C)=O |
| -11.3 | COCCCl |
| -11.6 | COCC(Cl)Cl |
| -11.1 | CCCOC(=O)CCC |
| -14.5 | FC(F)OC(F)(F)F |
| -10.9 | CCCCCCCCCCC |
| -10.2 | Cc1cccc(C)c1O |
| -10.9 | CCCCCCO |
| -11.3 | CCCO |
| -11.3 | CC(C)(C)CO |
| -10.2 | C/C=C\C |
| -10 | C=CC/C=C/C |
| -11.3 | CCCC(C)C |
| -11.6 | CCCOC=O |
| -11.1 | CCCCO |
| -12.3 | CC(=O)OC(C)(C)C |
| -10.7 | CCCCCCCCCCCCCCC |
| -10.2 | C=C(C)CCC |
| -10.1 | Cc1cccc(O)c1C |
| -11.1 | CCc1ccccc1 |

| log10 OH rate constant (cm³/molecule/s) | Compound |
| --- | --- |
| -13.3 | COC(=O)C(F)(F)F |
| -12.6 | COC=O |
| -11.5 | COC |
| -10 | C=CCCC(=C)C |
| -10.5 | C=CCC |
| -13.7 | COC(F)(F)F |
| -11.3 | CCCC(=O)OCC |
| -10.1 | C=CCC(=C)C |
| -10.7 | CCCOCCC |
| -10.1 | Cc1ccc(C)c(O)c1 |
| -10.7 | CCCOCCO |
| -10.9 | C#CCCCC |
| -10.7 | CCCCOCC |
| -9.77 | C=C(C)[C@H]1CC=C(C)CC1 |
| -11.7 | CCOC(=O)CC |
| -10.2 | CC=CCC |
| -15.5 | FC(F)F |
| -14.6 | CC(F)(F)C(F)(Cl)Cl |
| -10.8 | CCCCOC |
| -11.5 | CCCC(=O)OC |
| -9.99 | CCC(C)=C(C)C |
| -11.5 | O=C1CCCC1 |
| -12.2 | COCC(F)(F)F |
| -10.1 | CCC=C(C)C |

| log10 OH rate constant (cm³/molecule/s) | Compound |
| --- | --- |
| -10.4 | C=CCCCOC(C)=O |
| -12.1 | CC(C)(C)OC=O |
| -10.6 | C=C(C)C(=O)OCCOCC |
| -10.9 | CCOCCOC(=O)C(C)C |
| -10.5 | C=CCCC |
| -10.9 | CCCCCCCO |
| -10.8 | C1CC[C@H]2CCC[C@@H]2C1 (racemic) |
| -10.3 | CC1=CCC2CC1C2(C)C (configuration not stated) |
| -10.5 | CCOC=CC(=O)OCC |
| -10.1 | CC1=CCC2C(C1)C2(C)C (configuration not stated) |
| -11.4 | CCCOC(=O)CC |
| -11.3 | CC(C)O |
| -11.2 | CC(C)C(C)C(C)C |
| -9.95 | Cc1cc(C)cc(O)c1 |
| -10.2 | C/C=C/C(C)C |
| -11 | CCCCCO |
| -11 | CC(C)OC(C)C |
| -10.5 | CCCCCOCCCCC |
| -10.4 | C1=CC2CCC1CC2 |
| -10.6 | C=CC |
| -11.5 | CCCCOC=O |
| -13.8 | FC(F)(Cl)CCl |
| -11 | C=O |
| -11.1 | CCOC(C)(C)C |

Further lines, the molecule ahead of its results:

| Compound | log10 OH rate constant (cm³/molecule/s) |
| --- | --- |
| FC(F)(F)C(Cl)Cl | -13.4 |
| FC(Cl)C(F)(F)F (configuration not stated) | -14 |
| CCOCCO | -10.8 |
| FC1C(F)(F)OC1(F)F | -14.6 |
| FC(F)OCC(F)(F)F | -13.9 |
| COP(=O)(SC)SC | -11 |
| C=CC#N | -11.4 |
| COC(C)(C)C | -11.5 |
| CC(F)(F)Cl | -14.5 |
| CCCC[N+](=O)[O-] | -11.8 |
| FCC(F)F | -13.7 |
| Nc1ccccc1 | -9.95 |
| Cc1ccc(O)c(C)c1 | -10.1 |
| Clc1cccc(-c2ccccc2)c1 | -11.3 |
| C=CCl | -11.2 |
| Clc1ccccc1-c1ccccc1 | -11.5 |
| O=[N+]([O-])OC1CCCCC1 | -11.5 |
| CO | -12 |
| COP(=O)(OC)SC | -11 |
| Cl/C=C\CCl | -11 |
| ClCC(Br)CBr (configuration not stated) | -12.4 |
| Clc1ccc(Cl)c(Cl)c1 | -12.3 |
| CCC[N+](=O)[O-] | -12.4 |
| ClCCCl | -12.6 |
| ClCC(Cl)Cl | -12.7 |

| Compound | log10 OH rate constant (cm³/molecule/s) |
| --- | --- |
| FC(C(F)C(F)(F)C(F)(F)F)C(F)(F)F (configuration not stated) | -14.5 |
| CC(Cl)Cl | -12.6 |
| CC(C)CCO[N+](=O)[O-] | -11.7 |
| C1=CCCCCC1 | -10.1 |
| C1=CCCC1 | -10.2 |
| CCCCCO[N+](=O)[O-] | -11.5 |
| C1CC1 | -13.1 |
| CC(=O)Cl | -14 |
| O=CCl | -12.5 |
| CC(C)=O | -12.7 |
| Cl/C=C\Cl | -11.6 |
| C=CC(=O)OCC | -10.8 |
| CC(C)(C)CO[N+](=O)[O-] | -12.1 |
| Fc1c(F)c(F)c(F)c(F)c1F | -12.8 |
| FCC(F)(F)F | -14.3 |
| Cc1ccc(O)cc1C | -10.1 |
| ClCC(Cl)(Cl)Cl | -13.7 |
| C[N+](=O)[O-] | -12.9 |
| C=C(Cl)Cl | -11 |
| CC(Cl)(Cl)Cl | -14 |
| CCC#N | -12.7 |
| COP(=O)(OC)OC | -11.1 |
| CCOP(=O)(OCC)OCC | -10.3 |
| CCCCOC(C)=O | -11.3 |

Reference: the OPERA property sets (Mansouri et al. 2018)
